This is an account of results in ChEMBL document CHEMBL4002559, “Micromonohalimanes A and B: Antibacterial Halimane-Type Diterpenoids from a Marine Micromonospora Species” (2016).

Assay [1] has as its system Staphylococcus aureus. Put plainly: Antibacterial activity against methicillin-resistant Staphylococcus aureus ATCC 33591 after 18 hrs by dilution method. It is filed as functional. The conditions noted are these: ATCC 33591, 18 h.
Assay [2] relates to Staphylococcus aureus. Put plainly: Bacteriostatic activity against methicillin-resistant Staphylococcus aureus ATCC 33591 by LB plate method. The format is functional.

Converted amounts (≈) assume the structure as drawn. The source made the active and inactive calls. No cut-off for these calls is given here.

In the case of `CC(=O)O[C@H](C[C@@]1(C)[C@@H]2CCCC(C)(C)C2=CC[C@@H]1C)[C@@]1(O)COC(=O)[C@@H]1O`, in assay [1], the MIC (as a rule, the lowest concentration found to suppress growth) was greater than 200 µg/mL.
Regarding `CC(=O)O[C@H]1C(=O)O[C@H](C[C@@]2(C)[C@@H]3CCCC(C)(C)C3=CC[C@@H]2C)[C@]1(O)CCl`, the result in assay [2] was Active. Besides, the MIC in assay [1] came out at 40 µg/mL (≈ 96.9 µM).
